Measurements: patent publication US10870638B2, “Pyridazinone compound or its salt, and herbicide containing it” (ISHIHARA SANGYO KAISHA, LTD., priority 2016, dated 2020)

What was measured:
Assay type in all cases: in vivo
Settings in all cases: 14th day after application
[1] = test system: redroot pigweed (Amaranthus retroflexus L.); test: Test Example 1: foliar treatment, growth inhibition rate on 14th day
In short: (§1)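 Visual 0–100% inhibition scoring (100 = complete kill) at 14 days after foliar treatment of soil-grown seedlings at species-specific leaf stages, with the compound sprayed as a wettable powder or emulsifiable concentrate dilution.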

rice (Oryza sativa L.) [2] = test: as above
In short: (§2)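 Inhibition was rated visually 14 days after treatment on a 0–100% scale, where 100 is complete kill. Compounds, formulated as wettable powders or emulsifiable concentrates at set active-ingredient amounts, were diluted to 1,000 L/ha with 0.1 vol% spreader. The dilutions were sprayed post-emergence onto soybean (primary leaf), rice (0.2–2.7 leaf), wild oat (0.4–1.2) and green foxtail (0.5–3.2).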

[3] = test system: barnyardgrass (Echinochloa crus-qalli L.); test: as above
In short: as §1

corn (Zea mays L.) [4] = test: as above
In short: as §1

[5] = test system: italian ryegrass (Lolium multiflorum Lam.); test: as above
In short: as §1

[6] = test system: green foxtail (Setaria viridis L.); test: as above
In short: as §2

[7] = test system: wheat (Triticum aestivum L.); test: as above
In short: as §1

[8] = test system: crabgrass (Digitaria sanquinalis L.); test: as above
In short: as §1

[9] = test system: wild oat (Avena fatua L.); test: as above
In short: as §2

[10] = test system: soybean (Glycine max Merr.); test: as above
In short: as §2

[11] = test system: redroot pigweed (Amaranthus retroflexus L.); test: Test Example 2: soil application on the day after sowing, growth inhibition rate on 14th day
Source text: (§3) Upland field soil was put into a 1/300,000 hectare pot, and seeds of various plants (barnyardgrass (Echinochloa crus-qalli L.), crabgrass (Digitaris sanquinalis L.), green foxtail (Setaria viridis L.), redroot pigweed (Amaranthus retroflexus L.), prickly sida (Sida spinosa L.), velvetleaf (Abutilon theophrasti MEDIC.), rice (Oryza sativa L.), corn (Zea mays L.), wheat (Triticum aestivum L.), soybean (Glycine max Merr.)) were sown. On the day after sowing, wettable powders or emulsifiable concentrates of the compounds of the present invention prepared in accordance with a conventional preparation method, were weighed so as to achieve the prescribed active ingredient amounts, and diluted with water in an amount corresponding to 1,000 liters per 1 hectare, followed by soil application by a small sprayer.
(§4) On the 14th day after the application, the state of growth of the respective plants was visually observed, and the herbicidal effect was evaluated by a growth inhibition rate (%) of 0 (equivalent to the non-treated area) to 100 (complete kill).

rice (Oryza sativa L.) [12] = test: as above
Source text: as §3, §4

[13] = test system: barnyardgrass (Echinochloa crus-qalli L.); test: as above
Source text: as §3, §4

corn (Zea mays L.) [14] = test: as above
Source text: as §3, §4

[15] = test system: green foxtail (Setaria viridis L.); test: as above
Source text: as §3, §4

[16] = test system: wheat (Triticum aestivum L.); test: as above
Source text: as §3, §4

[17] = test system: velvetleaf (Abutilon theophrasti MEDIC.); test: as above
Source text: as §3, §4

[18] = test system: crabgrass (Digitaris sanquinalis L.); test: as above
Source text: as §3, §4

[19] = test system: prickly sida (Sida spinosa L.); test: as above
Source text: as §3, §4

[20] = test system: soybean (Glycine max Merr.); test: as above
Source text: as §3, §4

[21] = active ingredient amount 31 g/ha
[22] = active ingredient amount 500 g/ha

Structure (SMILES)	Growth inhibition rate (%) Redroot pigweed [1, 21] [%]	Growth inhibition rate (%) Rice (rice (Oryza sativa L.) [2]; [21]) [%]	Growth inhibition rate (%) Barnyardgrass [3, 21] [%]	Growth inhibition rate (%) Corn (corn (Zea mays L.) [4]; [21]) [%]	Growth inhibition rate (%) Italian ryegrass [5, 21] [%]	Growth inhibition rate (%) Green foxtail [6, 21] [%]	Growth inhibition rate (%) Wheat [7, 21] [%]	Growth inhibition rate (%) Crabgrass [8, 21] [%]	Growth inhibition rate (%) Wild oat [9, 21] [%]	Growth inhibition rate (%) Soybean [10, 21] [%]	Growth inhibition rate (%) Redroot pigweed [11, 21] [%]	Growth inhibition rate (%) Rice (rice (Oryza sativa L.) [12]; [21]) [%]	Growth inhibition rate (%) Barnyardgrass [13, 21] [%]	Growth inhibition rate (%) Corn (corn (Zea mays L.) [14]; [21]) [%]	Growth inhibition rate (%) Green foxtail [15, 21] [%]	Growth inhibition rate (%) Wheat [16, 21] [%]	Growth inhibition rate (%) Velvetleaf [17, 21] [%]	Growth inhibition rate (%) Crabgrass [18, 21] [%]	Growth inhibition rate (%) Prickly sida [19, 21] [%]	Growth inhibition rate (%) Soybean [20, 21] [%]	also measured
CCc1ccc(Sc2ncc(C(F)(F)F)cc2Cl)cc1-c1c(OC(C)=O)c(C)nn(C)c1=O [1-46]	30	80	100	98	99	100	98	100	100	0	0	30	80	0	99	30	0	90	0	0	–
CCn1nc(C)c(O)c(-c2cc(Oc3ncc(C(F)(F)F)cc3Cl)ccc2C)c1=O [1-65]	0	60	99	98	98	100	10	100	98	0	0	20	100	0	99	0	0	100	0	0	–
CCc1nn(C)c(=O)c(-c2cc(Oc3ncc(C(F)(F)F)cc3Cl)ccc2C)c1O [1-98]	0	0	88	80	78	60	20	30	65	10	0	35	95	0	30	0	0	20	0	0	–
CC(=O)Oc1c(C)nn(C)c(=O)c1-c1cc(Oc2cnc3ccccc3c2)ccc1C [Compound 2-146]	–	–	–	–	–	–	–	–	–	–	–	–	–	–	–	–	–	–	–	–	Growth inhibition rate (%) Redroot pigweed [1, 22]: 0%; Growth inhibition rate (%) Rice (rice (Oryza sativa L.) [2]; [22]): 75%; Growth inhibition rate (%) Barnyardgrass [3, 22]: 99%; Growth inhibition rate (%) Corn (corn (Zea mays L.) [4]; [22]): 85%; Growth inhibition rate (%) Italian ryegrass [5, 22]: 20%; Growth inhibition rate (%) Green foxtail [6, 22]: 95%; Growth inhibition rate (%) Wheat [7, 22]: 50%; Growth inhibition rate (%) Crabgrass [8, 22]: 95%; Growth inhibition rate (%) Wild oat [9, 22]: 80%; Growth inhibition rate (%) Soybean [10, 22]: 10%; Growth inhibition rate (%) Redroot pigweed [11, 22]: 0%; Growth inhibition rate (%) Rice (rice (Oryza sativa L.) [12]; [22]): 85%; Growth inhibition rate (%) Barnyardgrass [13, 22]: 100%; Growth inhibition rate (%) Corn (corn (Zea mays L.) [14]; [22]): 20%; Growth inhibition rate (%) Green foxtail [15, 22]: 100%; Growth inhibition rate (%) Wheat [16, 22]: 0%; Growth inhibition rate (%) Velvetleaf [17, 22]: 50%; Growth inhibition rate (%) Crabgrass [18, 22]: 100%; Growth inhibition rate (%) Prickly sida [19, 22]: 0%; Growth inhibition rate (%) Soybean [20, 22]: 0%
CC(=O)Oc1cnn(C)c(=O)c1-c1cc(Oc2nc3cc(Cl)ccc3o2)ccc1C [Compound 2-174]	–	93	100	95	95	93	93	93	88	0	0	0	20	20	0	0	0	80	0	0	–
Cc1ccc(Oc2cnc3cc(Cl)ccc3n2)cc1-c1c(O)c(C)nn(C)c1=O [Compound 3-1]	50	100	100	10	100	100	98	99	98	0	0	40	99	20	–	25	0	–	0	–	–
CCn1ncc(O)c(-c2cc(Oc3nc4ccc(Cl)cc4o3)ccc2C)c1=O [Compound 2-167]	0	60	100	90	80	100	25	99	45	30	–	0	40	0	100	0	0	99	0	0	–
Cc1ccc(Oc2cnc3cc(Cl)ccc3n2)cc1-c1c(O)c(C)nn(C)c1=O [Compound 2-7]	50	100	100	10	100	100	98	–	98	0	0	40	99	20	100	25	0	99	0	0	–
